We go through five molecules from patent US9988430B2, “Stable GLP-1 based GLP-1/glucagon receptor co-agonists” (Novo Nordisk A/S, priority 2014, dated 2018).

*1 amine or outer side, *2 acyl side, *3 side chain or, on linkers, in order; H or OH if unused. Where a SMILES comes first, the peptide text is derived from it. Bridges are numbered along the chain shown (N, C = ends). Roman numbers before positions name the chains, in order. Side-chain parts run from the residue outwards. [ ]: non-standard residue; d: D form. The star is where a group is joined. C18 diacid = O=C(O)CCCCCCCCCCCCCCCCC(=O)*; γGlu = O=C(O)[C@H](CCC(=O)[*:2])N[*:1]; Desaminohistidyl = O=C(CCc1c[nH]cn1)*; AEEA = NCCOCCOCC(=O)O; Aib = CC(C)(N)C(=O)O

Data set [1] in a line: Assay (V): chemical stability assessment by RP-UPLC. The settings on record: 14 days at 37° C. in phosphate buffer (pH 7.3). The class given is physicochemical. The method, then:
Assay (V): Chemical Stability Assessment
The purpose of this assay is to assess the chemical stability of the GLP-1 derivatives of the present invention in aqueous solutions.
Chemical stability of GLP-1 derivatives may be investigated by RP-UPLC separation and UV detection. Lyophilized samples are dissolved in a 8 mM Phosphate buffer pH 8.6, followed by adjustment to pH 7.3 using HCl to a final concentration of 333 μM. Samples are incubated for 14 days at 5° C. and 37° C. followed by RP-UPLC analysis. Purity is defined as the area percentage of the main peak in relation to the total area of all integrated peaks in each chromatogram. Purity loss, also referred to herein as chemical degradation, after 14 days at 37° C. is determined as the difference in purity between the samples incubated at 5° C. and 37° C., divided by the purity of the sample after incubation for 14 days at 5° C.
RP-UPLC analysis is performed using a Waters BEH130 2.1 mm×150 mm, 1.7 μm column operated at 50° C. and a flow rate of 0.4 mL/min using a mobile phase system consisting of A: 0.05% TFA in MQ-water, and B: 0.05% TFA in Acetonitrile. UV-detection is performed at 215 nm. The typical gradient profile used for most of the samples is shown below.
For some individual derivatives eluting at substantially different retention times compared with the majority of derivatives, some adjustments to the gradient profile are made to better enable purity assessment comparison across samples.

A further data set has as its target T1, human GLP-1 receptor (Homo sapiens, UniProt P43220).
T1 construct: expressed in transfected cells; host or cells: membranes of BHK cells, parent line BHKTS13, clone FCW467-12A
Put plainly: Assay (II)(a): GLP-1 receptor binding, [125I]GLP-1 displacement, SPA on BHK membranes. To be noted: displacement of [125I]GLP-1, membranes with human GLP-1 receptor; read-out: IC50 GLP-1R. The essentials:
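Membranes from BHK cells expressing human GLP-1 receptor with WGA SPA beads, [125I]GLP-1(7-36)NH2 (480 pM added solution) and compound in HEPES pH 7.4 buffer with EGTA, MgCl2, Tween 20. Incubated 2 h at 30° C; SPA counts fitted by non-linear regression to IC50 in nM.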
On the technique in general: In a radioligand displacement assay an active substance lowers the binding of a labelled ligand.

T1 sequence (P43220 24-463): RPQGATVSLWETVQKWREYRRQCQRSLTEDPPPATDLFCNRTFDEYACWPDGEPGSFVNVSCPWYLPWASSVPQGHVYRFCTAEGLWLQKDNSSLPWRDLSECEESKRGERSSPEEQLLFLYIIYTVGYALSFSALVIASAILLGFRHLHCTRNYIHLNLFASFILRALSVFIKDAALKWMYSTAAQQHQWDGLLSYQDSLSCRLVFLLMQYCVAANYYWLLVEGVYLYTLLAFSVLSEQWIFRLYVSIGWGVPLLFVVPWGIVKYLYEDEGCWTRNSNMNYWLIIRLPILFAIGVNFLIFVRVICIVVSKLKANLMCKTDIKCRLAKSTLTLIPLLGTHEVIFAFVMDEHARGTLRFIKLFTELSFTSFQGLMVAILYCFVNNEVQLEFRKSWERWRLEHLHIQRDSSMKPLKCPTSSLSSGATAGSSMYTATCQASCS

By IC50 is commonly meant the midpoint of a concentration-inhibition curve. As to `CC[C@H](C)[C@H](NC(=O)[C@H](Cc1ccccc1)NC(=O)[C@H](CCC(=O)O)NC(=O)[C@H](CCCNC(=N)N)NC(=O)[C@H](C)NC(=O)[C@H](C)NC(=O)[C@H](CCC(N)=O)NC(=O)[C@H](CCC(=O)O)NC(=O)[C@H](CCC(=O)O)NC(=O)[C@H](CC(C)C)NC(=O)[C@H](Cc1ccc(O)cc1)NC(=O)[C@H](CCCCN)NC(=O)[C@H](CO)NC(=O)[C@@H](NC(=O)[C@H](CC(=O)O)NC(=O)[C@H](CO)NC(=O)[C@@H](NC(=O)[C@H](Cc1ccccc1)NC(=O)[C@@H](NC(=O)CNC(=O)[C@H](Cc1c[nH]cn1)NC(=O)C(C)(C)NC(=O)CCc1c[nH]cn1)[C@@H](C)O)[C@@H](C)O)C(C)C)C(=O)N[C@@H](C)C(=O)N[C@@H](Cc1c[nH]c2ccccc12)C(=O)N[C@@H](CC(C)C)C(=O)N[C@@H](CC(C)C)C(=O)N[C@@H](CCCCNC(=O)CNC(=O)[C@H](CO)NC(=O)[C@H](CCC(=O)O)NC(=O)CNC(=O)[C@H](CO)NC(=O)CC[C@H](NC(=O)CC[C@H](NC(=O)CCCCCCCCCCCCCCCCC(=O)O)C(=O)O)C(=O)O)C(=O)N[C@H](C(N)=O)[C@@H](C)O` [Example 3, N^ε34-[2-[[(2S)-2-[[(2S)-4-carboxy-2-[[2-[[(2S)-2-[[(4S)-4-carboxy-4-[[(4S)-4-carboxy-4-(17-carboxyheptadecanoylamino)butanoyl]amino]butanoyl]amino]-3-hydroxypropanoyl]amino]acetyl]amino]butanoyl]amino]-3-hydroxypropanoyl]amino]acetyl]-[Imp7,Aib8,His9,Lys18,Glu22,Arg26,Leu33,Thr35]-GLP-1-(7-35)-peptide amide] (I: Desaminohistidyl-[Aib]HGTFTSDVSKYLEEQAAREFIAWLLKT-NH2 / II: {C18 diacid-γGlu-γGlu}-SGESG; amide I:27-II:C), the “Chemical stability: Chemical degradation over 14 days at 37° C.” value (shortened to “Chemical stability … over 14 days at 37° C.”) in data set [1] is −0.3%. On human GLP-1 receptor, the IC50 stood at 400 pM.
For `CC[C@H](C)[C@H](NC(=O)[C@H](Cc1ccccc1)NC(=O)[C@H](CCC(=O)O)NC(=O)[C@H](CCCNC(=N)N)NC(=O)[C@H](C)NC(=O)[C@H](C)NC(=O)[C@H](CCC(N)=O)NC(=O)[C@H](CCC(=O)O)NC(=O)[C@H](CCC(=O)O)NC(=O)[C@H](CC(C)C)NC(=O)[C@H](Cc1ccc(O)cc1)NC(=O)[C@H](CCCCN)NC(=O)[C@H](CO)NC(=O)[C@@H](NC(=O)[C@H](CC(=O)O)NC(=O)[C@H](CO)NC(=O)[C@@H](NC(=O)[C@H](Cc1ccccc1)NC(=O)[C@@H](NC(=O)CNC(=O)[C@H](Cc1c[nH]cn1)NC(=O)C(C)(C)NC(=O)CCc1c[nH]cn1)[C@@H](C)O)[C@@H](C)O)C(C)C)C(=O)N[C@@H](C)C(=O)N[C@@H](Cc1c[nH]c2ccccc12)C(=O)N[C@@H](CC(C)C)C(=O)N[C@@H](CC(C)C)C(=O)N[C@@H](CCCCNC(=O)CNC(=O)[C@H](CO)NC(=O)CC[C@H](NC(=O)CC[C@H](NC(=O)CCCCCCCCCCCCCCCCC(=O)O)C(=O)O)C(=O)O)C(=O)N[C@H](C(N)=O)[C@@H](C)O` [Example 4, N^ε34-[2-[[(2S)-2-[[(4S)-4-carboxy-4-[[(4S)-4-carboxy-4-(17-carboxyheptadecanoylamino)butanoyl]amino]butanoyl]amino]-3-hydroxypropanoyl]amino]acetyl]-[Imp7,Aib8,His9,Lys18,Glu22,Arg26,Leu33,Thr35]-GLP-1-(7-35)-peptide amide] (Desaminohistidyl-[Aib]HGTFTSDVSKYLEEQAAREFIAWLLK([Gly-Ser-γGlu-γGlu-C18 diacid])T-NH2), in data set [1], the “Chemical stability … over 14 days at 37° C.” value is 0.2%. Further, the IC50 at human GLP-1 receptor amounted to 200 pM.
As for `CC[C@H](C)[C@H](NC(=O)[C@H](Cc1ccccc1)NC(=O)[C@H](CCC(=O)O)NC(=O)[C@H](CCCNC(=N)N)NC(=O)[C@H](C)NC(=O)[C@H](C)NC(=O)[C@H](CCC(N)=O)NC(=O)[C@H](CCC(=O)O)NC(=O)[C@H](CCC(=O)O)NC(=O)[C@H](CC(C)C)NC(=O)[C@H](Cc1ccc(O)cc1)NC(=O)[C@H](CCCCN)NC(=O)[C@H](CO)NC(=O)[C@@H](NC(=O)[C@H](CC(=O)O)NC(=O)[C@H](CO)NC(=O)[C@@H](NC(=O)[C@H](Cc1ccccc1)NC(=O)[C@@H](NC(=O)CNC(=O)[C@H](Cc1c[nH]cn1)NC(=O)C(C)(C)NC(=O)CCc1c[nH]cn1)[C@@H](C)O)[C@@H](C)O)C(C)C)C(=O)N[C@@H](C)C(=O)N[C@@H](Cc1c[nH]c2ccccc12)C(=O)N[C@@H](CC(C)C)C(=O)N[C@@H](CC(C)C)C(=O)N[C@@H](CCCCNC(=O)COCCOCCNC(=O)COCCOCCNC(=O)CC[C@H](NC(=O)CC[C@H](NC(=O)CCCCCCCCCCCCCCCCC(=O)O)C(=O)O)C(=O)O)C(=O)N[C@H](C(N)=O)[C@@H](C)O` [Example 5, N^ε34-[2-[2-[2-[[2-[2-[2-[[(4S)-4-carboxy-4-[[(4S)-4-carboxy-4-(17-carboxyheptadecanoylamino)butanoyl]amino]butanoyl]amino]ethoxy]ethoxy]acetyl]amino]ethoxy]ethoxy]acetyl]-[Imp7,Aib8,His9,Lys18,Glu22,Arg26,Leu33,Thr35]-GLP-1-(7-35)-peptide amide] (Desaminohistidyl-[Aib]HGTFTSDVSKYLEEQAAREFIAWLLK([AEEA-AEEA-γGlu-γGlu-C18 diacid])T-NH2), the “Chemical stability … over 14 days at 37° C.” value in data set [1] is reported as 0.4%. Also, at human GLP-1 receptor, the IC50 was determined as 500 pM.
Regarding `CC[C@H](C)[C@H](NC(=O)[C@H](Cc1ccccc1)NC(=O)[C@H](CCC(=O)O)NC(=O)[C@H](CCCNC(=N)N)NC(=O)[C@H](C)NC(=O)[C@H](C)NC(=O)[C@H](CCC(N)=O)NC(=O)[C@H](CCC(=O)O)NC(=O)[C@H](CCC(=O)O)NC(=O)[C@H](CC(C)C)NC(=O)[C@H](Cc1ccc(O)cc1)NC(=O)[C@H](CCCCN)NC(=O)[C@H](CO)NC(=O)[C@@H](NC(=O)[C@H](CC(=O)O)NC(=O)[C@H](CO)NC(=O)[C@@H](NC(=O)[C@H](Cc1ccccc1)NC(=O)[C@@H](NC(=O)CNC(=O)[C@H](Cc1c[nH]cn1)NC(=O)C(C)(C)NC(=O)CCc1c[nH]cn1)[C@@H](C)O)[C@@H](C)O)C(C)C)C(=O)N[C@@H](C)C(=O)N[C@@H](Cc1c[nH]c2ccccc12)C(=O)N[C@@H](CC(C)C)C(=O)N[C@@H](CC(C)C)C(=O)N[C@@H](CCCCNC(=O)CC[C@H](NC(=O)CC[C@H](NC(=O)CC[C@H](NC(=O)CC[C@H](NC(=O)CCCCCCCCCCCCCCCCC(=O)O)C(=O)O)C(=O)O)C(=O)O)C(=O)O)C(=O)N[C@H](C(N)=O)[C@@H](C)O` [Example 6, N^ε34-[(4S)-4-carboxy-4-[[(4S)-4-carboxy-4-[[(4S)-4-carboxy-4-[[(4S)-4-carboxy-4-(17-carboxyheptadecanoylamino)butanoyl]amino]butanoyl]amino]butanoyl]amino]butanoyl]-[Imp7,Aib8,His9,Lys18,Glu22,Arg26,Leu33,Thr35]-GLP-1-(7-35)-peptide amide] (Desaminohistidyl-[Aib]HGTFTSDVSKYLEEQAAREFIAWLLK([γGlu-γGlu-γGlu-γGlu-C18 diacid])T-NH2), the “Chemical stability … over 14 days at 37° C.” value in data set [1] was found to be 0.1%. Besides, the IC50 on human GLP-1 receptor was determined as 300 pM.
Turning to `CC[C@H](C)[C@H](NC(=O)[C@H](Cc1ccccc1)NC(=O)[C@H](CCC(=O)O)NC(=O)[C@H](CCCNC(=N)N)NC(=O)[C@H](C)NC(=O)[C@H](C)NC(=O)[C@H](CCCNC(=N)N)NC(=O)CNC(=O)[C@H](CCC(=O)O)NC(=O)[C@H](CC(C)C)NC(=O)[C@H](Cc1ccc(O)cc1)NC(=O)[C@H](CCCNC(=N)N)NC(=O)[C@H](CO)NC(=O)[C@@H](NC(=O)[C@H](CC(=O)O)NC(=O)[C@H](CO)NC(=O)[C@@H](NC(=O)[C@H](Cc1ccccc1)NC(=O)[C@@H](NC(=O)CNC(=O)[C@H](Cc1c[nH]cn1)NC(=O)C(C)(C)NC(=O)CCc1c[nH]cn1)[C@@H](C)O)[C@@H](C)O)C(C)C)C(=O)N[C@@H](C)C(=O)N[C@@H](Cc1c[nH]c2ccccc12)C(=O)N[C@@H](CC(C)C)C(=O)N[C@@H](CC(C)C)C(=O)N[C@@H](CCCCNC(=O)CC[C@H](NC(=O)CC[C@H](NC(=O)COCCOCCNC(=O)CC[C@H](NC(=O)CC[C@H](NC(=O)CCCCCCCCCCCCCCCCC(=O)O)C(=O)O)C(=O)O)C(=O)O)C(=O)O)C(=O)NCC(=O)N[C@@H](C)C(=O)NCC(=O)O` [Example 35, N^ε34-[(4S)-4-carboxy-4-[[(4S)-4-carboxy-4-[[2-[2-[2-[[(4S)-4-carboxy-4-[[(4S)-4-carboxy-4-(17-carboxyheptadecanoylamino)butanoyl]amino]butanoyl]amino]ethoxy]ethoxy]acetyl]amino]butanoyl]amino]butanoyl]-[Imp7,Aib8,His9,Arg18,Arg23,Arg26,Leu33,Ala36]-GLP-1-(7-37)-peptide] (Desaminohistidyl-[Aib]HGTFTSDVSRYLEGRAAREFIAWLLK([γGlu-γGlu-AEEA-γGlu-γGlu-C18 diacid])GAG-OH), the IC50 at human GLP-1 receptor worked out at 1000 pM.
